In ChEMBL document CHEMBL1201862, “PubChem BioAssay data set” (2004):
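Dose response: 5 concentrations. Exposure: 48 h. Format: 96-well plates. Endpoint: linear interpolation; highest concentration if not reached. The concentration for 50% growth inhibition is given as GI50.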 Calls of active or inactive are those of the source. No stated cut-off is given here; in the data, active = GI50 up to about 1.1 µM and inactive = higher.

Key:
Experiment in all cases: DTP human tumour cell line panel, 48 h
[1] = tested on: SF-539
[2] = tested on: RXF 393
[3] = tested on: OVCAR-3
[4] = tested on: IGROV-1
[5] = tested on: SR
[6] = tested on: NCI-H23
[7] = tested on: UACC-257
[8] = tested on: SNB-75
[9] = tested on: MDA-MB-435
[10] = tested on: MDA-N
[11] = tested on: HL-60
[12] = tested on: MCF7
[13] = tested on: UO-31
[14] = tested on: MOLT-4
[15] = tested on: RPMI-8226
[16] = tested on: NCI/ADR-RES
[17] = tested on: Hs-578T
[18] = tested on: UACC-62
[19] = tested on: SK-MEL-2
[20] = tested on: NCI-H226
[21] = tested on: A498
[22] = tested on: HT-29
[23] = tested on: SF-268
[24] = tested on: K562
[25] = tested on: SK-OV-3
[26] = tested on: ACHN
[27] = tested on: DU-145
[28] = tested on: SK-MEL-28
[29] = tested on: OVCAR-8
[30] = tested on: PC-3
[31] = tested on: T47D
[32] = tested on: TK-10
[33] = tested on: SW-620
[34] = tested on: SF-295
[35] = tested on: HCC 2998
[36] = tested on: NCI-H522
[37] = tested on: 786-0
[38] = tested on: NCI-H460
[39] = tested on: LOX IMVI
[40] = tested on: OVCAR-4
[41] = tested on: HCT-116
[42] = tested on: CAKI-1
[43] = tested on: OVCAR-5
[44] = tested on: KM12
[45] = tested on: SNB-19
[46] = tested on: HOP-62
[47] = tested on: SK-MEL-5
[48] = tested on: SN12C
[49] = tested on: HCT-15
[50] = tested on: EKVX
[51] = tested on: U-251
[52] = tested on: MDA-MB-231
[53] = tested on: A549
[54] = tested on: M14
[55] = tested on: CCRF-CEM
[56] = tested on: BT-549
[57] = tested on: HOP-92
[58] = tested on: COLO 205
[59] = tested on: Malme-3M

Measured: GI50

COc1ccc2c(c1)CC[C@@H]1[C@@H]2CC[C@]2(C)/C(=N/OCCN3CCCCC3)CC[C@@H]12
inactive: [1] 2.77 µM | [2] 2.81 µM | [3] 3.69 µM | [4] 1.95 µM | [5] 2.44 µM | [6] 11.4 µM | [7] 2.55 µM | [8] 5.69 µM | [9] 4.56 µM | [10] 2.33 µM | [11] 2.79 µM | [12] 6.95 µM | [13] 3.19 µM | [14] 3.06 µM | [15] 2.62 µM | [16] 10 µM | [17] 6.76 µM | [18] 2.06 µM | [19] 6.07 µM | [20] 5.43 µM | [21] 6.38 µM | [22] 1.66 µM | [23] 9.2 µM | [24] 2.79 µM | [25] 10.3 µM | [26] 8.81 µM | [27] 3.85 µM | [28] 2.12 µM | [29] 9.79 µM | [30] 4.74 µM | [31] 5.46 µM | [32] 4.74 µM | [33] 5.11 µM | [34] 3.52 µM | [35] 2.89 µM | [36] 5.27 µM | [37] 1.85 µM | [38] 2.5 µM | [39] 1.66 µM | [40] 12.2 µM | [41] 2.38 µM | [42] 1.94 µM | [43] 5.33 µM | [44] 3.61 µM | [45] 7.45 µM | [46] 6.25 µM | [47] 2.65 µM | [48] 4.34 µM | [50] 8.32 µM | [51] 8.09 µM | [52] 8.41 µM | [53] 5.35 µM | [54] 2.42 µM | [55] 3.28 µM | [56] 12.8 µM | [57] 3.44 µM | [58] 1.55 µM | [59] 2.25 µM
2.03 µM: [49]

Brc1ccc2c([C@H]3CN[C@@H](c4c[nH]c5cc(Br)ccc45)CN3)c[nH]c2c1
3.83 µM: [49]
inactive: [1] 2.89 µM | [2] 2.4 µM | [3] 1.94 µM | [4] 3.19 µM | [5] 2.27 µM | [6] 2.54 µM | [7] 14.9 µM | [8] 5.27 µM | [9] 1.72 µM | [10] 1.66 µM | [11] 1.95 µM | [12] 1.9 µM | [13] 4.16 µM | [14] 2.29 µM | [15] 2.48 µM | [16] 4.9 µM | [17] 7.62 µM | [18] 9.82 µM | [19] 5.07 µM | [20] 7.26 µM | [21] 1.87 µM | [22] 1.92 µM | [23] 6.79 µM | [24] 1.74 µM | [25] 8.99 µM | [26] 2.94 µM | [27] 2.96 µM | [28] 14.2 µM | [29] 1.84 µM | [30] 3.9 µM | [31] 5.47 µM | [32] 7.33 µM | [33] 1.71 µM | [34] 7.1 µM | [35] 1.62 µM | [36] 1.57 µM | [37] 1.65 µM | [38] 1.9 µM | [39] 1.83 µM | [40] 1.9 µM | [41] 1.66 µM | [42] 2.94 µM | [43] 4.95 µM | [44] 1.7 µM | [45] 9.14 µM | [46] 11.6 µM | [47] 4.91 µM | [48] 5.19 µM | [50] 10.5 µM | [51] 2 µM | [52] 1.8 µM | [53] 2.8 µM | [54] 2.24 µM | [55] 2.84 µM | [56] 12.3 µM | [57] 3.24 µM | [58] 1.57 µM | [59] 2.56 µM

Cn1c2c3ccc(Cl)cc3nc-2c(Cl)c2ccccc21
inactive: [1] 19.9 µM | [2] 16.6 µM | [3] 14 µM | [4] 16.6 µM | [5] 6.15 µM | [6] 13.4 µM | [7] 17.5 µM | [8] 17.1 µM | [9] 18.1 µM | [10] 20.2 µM | [11] 24.2 µM | [12] 26.2 µM | [13] 16.3 µM | [14] 19 µM | [15] 4.31 µM | [16] 24.8 µM | [17] 40.6 µM | [18] 20.4 µM | [19] 21.4 µM | [20] 23 µM | [21] 19.9 µM | [22] 15.3 µM | [23] 14.2 µM | [24] 6.01 µM | [25] 49.4 µM | [26] 13.5 µM | [27] 15.1 µM | [28] 17.7 µM | [29] 20.2 µM | [30] 13.7 µM | [31] 11.9 µM | [32] 16.6 µM | [33] 11.9 µM | [34] 15.2 µM | [35] 5.38 µM | [36] 17.9 µM | [37] 15.5 µM | [38] 12.7 µM | [39] 13.3 µM | [40] 17.1 µM | [41] 1.71 µM | [42] 17.3 µM | [43] 17.3 µM | [44] 16.9 µM | [45] 22.9 µM | [46] 16.4 µM | [47] 16.4 µM | [48] 14.4 µM | [50] 22.9 µM | [51] 10.9 µM | [52] 23.7 µM | [53] 27.3 µM | [54] 20.9 µM | [55] 3.86 µM | [56] 24.3 µM | [57] 15.7 µM | [58] 12.2 µM | [59] 18.2 µM
14.7 µM: [49]

Cc1ccc(/C=C2\CN(C)CC3C2=NC(=S)NC3c2ccc(C)cc2)cc1 (stereo unspecified)
36 µM: [49]
inactive: [1] > 100 µM | [2] 30.3 µM | [3] 38.6 µM | [4] 13.7 µM | [5] 29.9 µM | [6] > 74 µM | [7] 62.4 µM | [8] 60.8 µM | [9] 16.7 µM | [10] 22 µM | [11] 31.3 µM | [12] 40.6 µM | [13] 43.2 µM | [14] 14.6 µM | [15] 46.5 µM | [16] 30.8 µM | [17] > 100 µM | [18] > 100 µM | [19] > 30.7 µM | [20] > 100 µM | [21] > 86.7 µM | [22] 27.2 µM | [23] > 74.3 µM | [24] 38.7 µM | [25] > 100 µM | [26] > 100 µM | [27] > 85.7 µM | [28] > 100 µM | [29] 53.1 µM | [30] 11 µM | [31] 26 µM | [32] > 76.4 µM | [33] > 88.7 µM | [34] 61.8 µM | [35] 16.1 µM | [36] 24 µM | [37] 86.3 µM | [38] 41.8 µM | [39] 34.7 µM | [40] 26.9 µM | [41] 37.3 µM | [42] > 77.1 µM | [43] > 100 µM | [44] 32.1 µM | [45] > 61.9 µM | [46] > 100 µM | [47] 38.5 µM | [48] 52.1 µM | [50] 9.93 µM | [51] 20.5 µM | [52] > 68.7 µM | [53] 35.3 µM | [54] 42.5 µM | [55] 13.8 µM | [56] > 72.4 µM | [57] 1.69 µM | [58] 22.7 µM | [59] 92.7 µM
